Earlier results as cited in patent US20160286794A1, “PLANT DISEASE CONTROL AGENT AND PLANT DISEASE CONTROL METHOD” (UBE MATERIALS INDUSTRIES, LTD., priority 2013, published 2016).

Details: Hydrophile-Lipophile Balance of the nonionic surfactant

Substance	HLB
nonylphenyl polyethylene glycol [Nodinet P-40]	13.0
octylphenol polyethylene glycol ether [Triton X-100]	13.5
polyethylene glycol sorbitan monolaurate [Tween 20]	16.7
polyethylene glycol sorbitan monooleate [Tween 80]	15.0
polyoxyethylene branched nonyl cyclohexyl ether [Triton N-101]	13.5
